The record followed here is patent US11718612B2, “Inhibitors of receptor interacting protein kinase I for the treatment of disease” (Board of Regents, The University of Texas System, priority 2019, dated 2023).

Bounds are passed on as bounds.

Chain of RIPK1 (Q13546 1-327): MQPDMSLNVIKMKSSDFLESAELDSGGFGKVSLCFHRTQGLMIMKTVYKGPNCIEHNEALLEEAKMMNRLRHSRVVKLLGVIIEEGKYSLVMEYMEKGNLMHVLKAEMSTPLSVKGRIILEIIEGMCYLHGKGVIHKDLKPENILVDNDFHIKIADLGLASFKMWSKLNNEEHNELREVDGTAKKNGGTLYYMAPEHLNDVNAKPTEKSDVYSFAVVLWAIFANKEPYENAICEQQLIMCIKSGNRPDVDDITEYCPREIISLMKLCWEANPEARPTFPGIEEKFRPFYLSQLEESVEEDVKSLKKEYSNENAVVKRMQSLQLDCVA

The first assay has as its target RIPK1 (Homo sapiens (Human), UniProt Q13546). Kind of assay: ADP-Glo kinase assay, RIPK1 activity. It counts as biochemical. The note with it: 5 nM RIPK1, 50 μM ATP, 6 hr reaction. How it is done: In order to measure RIPK1 activity the ADP-Glo kinase assay (Promega, Catalog #V7002) was used to measure the conversion of ATP to ADP. This enzymatic assay was performed in a 384-well white, Optiplate (Perkin Elmer, Catalog #6007299) with assay buffer consisting of 50 mM HEPES pH 7.5 (Gibco, Catalog #15630-080), 50 mM NaCl (Teknova, Catalog #S0252), 30 mM MgCl2 (Ambion, Catalog #AM9530G), 1 mM DTT (Santa Cruz Biotechnology, Catalog #sc-29089), 0.05% BSA (Sigma, Catalog #A3059-50G) and 0.02% CHAPS (Sigma, Catalog #C5070-5G). Stock solutions of the test compounds were prepared in 100% DMSO (Sigma, Catalog #D2650) and serially diluted 1:3 using 100% DMSO. Compounds were additionally diluted 1:40 in assay buffer, and 2 μL/well were transferred to the assay plate. 4 μL/well (final concentration of 5 nM) of RIPK1 protein (SignalChem, Catalog #R07-11G-05) diluted in assay buffer and added to the assay plate followed by a 10 minute preincutation at room temperature. 4 μL/well of ATP (Promega, Catalog #V7002) (final concentration of 50 μM) diluted in assay buffer were then added to the assay plate followed by a 6 hr reaction time. Final concentrations of RIPK1 and ATP refer to a 10 μL volume. Luminescence was measured using a BioTek Synergy™ NEO plate reader. IC50 values were calculated using a four-parameter logistic curve fit using Genedata Screener software.
In general terms: ADP-Glo first removes unused ATP, then detects ADP through luciferase.
As usually defined, the IC50 is the concentration that gives 50% inhibition. For the compound `Cc1cc(C(=O)Nc2cccc(Cl)c2F)nn1Cc1ccccc1` [Example 5, 1-benzyl-N-(3-chloro-2-fluoro-phenyl)-5-methyl-pyrazole-3-carboxamide], the IC50 turned out to be 14500 nM.

In the case of `Cc1c(F)c(C(=O)Nc2cccc(Cl)c2F)nn1Cc1ccccc1` [Example 6, 1-Benzyl-N-(3-chloro-2-fluorophenyl)-4-fluoro-5-methyl-1H-pyrazole-3-carboxamide], the half-maximal inhibitory concentration (IC50) worked out at 920 nM.

As for `O=C(Nc1cccc(Cl)c1F)c1ccn(Cc2ccccc2)n1` [Example 7, 1-Benzyl-N-(3-chloro-2-fluorophenyl)-1H-pyrazole-3-carboxamide], the 50% inhibitory concentration (IC50) amounted to 12100 nM.

Consider `O=C(Nc1cccc(Cl)c1F)c1cc(O)n(Cc2cnccn2)n1` [Example 8, N-(3-chloro-2-fluoro-phenyl)-5-hydroxy-1-(pyrazin-2-ylmethyl)pyrazole-3-carboxamide], for which the IC50 stood at 31200 nM.

For the compound `O=C(Nc1cccc(Cl)c1F)c1nc(Cc2ccccc2)c[nH]1` [Example 14, 4-Benzyl-N-(3-chloro-2-fluoro-phenyl)-1H-imidazole-2-carboxamide], the concentration for half-maximal inhibition (IC50) was found to be 6960 nM.

Regarding `O=C1c2nc(Cc3ccccc3)cn2CCN1c1cccc(Cl)c1F` [Example 15, 2-Benzyl-7-(3-chloro-2-fluoro-phenyl)-5,6-dihydroimidazo[1,2-a]pyrazin-8-one], the IC50 worked out at 3150 nM.

With `O=C1c2nc(Cc3ccccc3)c(Cl)n2CCN1c1cccc(Cl)c1F` [Example 16, 2-Benzyl-3-chloro-7-(3-chloro-2-fluoro-phenyl)-5,6-dihydroimidazo[1,2-a]pyrazin-8-one], the IC50 was found to be 123 nM.

Regarding `O=C(Nc1cccc(Cl)c1F)c1nc(Cc2ccccc2)c(Cl)[nH]1` [Example 18, 4-Benzyl-5-chloro-N-(3-chloro-2-fluoro-phenyl)-1H-imidazole-2-carboxamide], the IC50 is 18700 nM.

`Cc1nc(C(=O)Nc2cccc(Cl)c2F)nn1Cc1cccc(C#N)c1` [Example 34, N-(3-chloro-2-fluoro-phenyl)-1-(3-cyano-benzyl)-5-methyl-1H-1,2,4-triazole-3-carboxamide]: the IC50 is 472 nM.

For `O=C(Nc1ccc(Cl)c(Cl)c1F)c1ncn(Cc2ccccc2)n1` [Example 37, 1-benzyl-N-(3,4-dichloro-2-fluoro-phenyl)-1H-1,2,4-triazole-3-carboxamide], the concentration for half-maximal inhibition (IC50) is 1100 nM.

For `O=C(Nc1cc(C(F)(F)F)cc(Cl)c1F)c1ncn(Cc2ccccc2)n1` [Example 38, 1-benzyl-N-(3-chloro-2-fluoro-5-(trifluoro-methyl)phenyl)-1H-1,2,4-triazole-3-carboxamide], the IC50 turned out to be 1300 nM.

With `N#Cc1ccc(NC(=O)c2ncn(Cc3ccccc3)n2)c(F)c1Cl` [Example 39, 1-benzyl-N-(3-chloro-4-cyano-2-fluorophenyl)-1H-1,2,4-triazole-3-carboxamide], the IC50 turned out to be 1410 nM.

As for `O=C(Nc1ccc(Br)c(Cl)c1F)c1ncn(Cc2ccccc2)n1` [Example 40, 1-benzyl-N-(4-bromo-3-chloro-2-fluoro-phenyl)-1H-1,2,4-triazole-3-carboxamide], the half-inhibitory concentration (IC50) came to 1650 nM.

For `COc1ccc(N(C)C(=O)c2ncn(Cc3ccccc3)n2)c(F)c1Cl` [Example 41, 1-benzyl-N-(3-chloro-2-fluoro-4-methoxy-phenyl)-N-methyl-1H-1,2,4-triazole-3-carboxamide], the IC50 was 9250 nM.

As for `O=C1c2nc(Cc3ccccc3)c(Cl)n2CCN1c1cccc(Cl)c1` [Example 42, 2-benzyl-3-chloro-7-(3-chlorophenyl)-6,7-dihydroimidazo[1,2-a]pyrazin-8(5H)-one], the IC50 was 318 nM.

Consider `O=C1c2nc(Cc3ccccc3)cn2CCN1c1cccc(Cl)c1` [Example 43, 2-benzyl-7-(3-chlorophenyl)-6,7-dihydroimidazo[1,2-a]pyrazin-8(5H)-one], for which the concentration for half-maximal inhibition (IC50) turned out to be 13700 nM.

For `Cn1cc(C(=O)Nc2cccc(Cl)c2F)nc1Cc1ccccc1` [Example 44, 2-benzyl-N-(3-chloro-2-fluorophenyl)-1-methyl-1H-imidazole-4-carboxamide], the IC50 was more than 33000 nM.

Turning to `O=C(Nc1cccc(Cl)c1F)c1c[nH]c(Cc2ccccc2)n1` [Example 45, 2-benzyl-N-(3-chloro-2-fluorophenyl)-1H-imidazole-4-carboxamide], the 50% inhibitory concentration (IC50) came to 48600 nM.

In the case of `O=C1c2cc(Cc3ccccc3)ccc2CN1c1ccccc1F` [Example 48, 6-Benzyl-2-(2-fluorophenyl)isoindolin-1-one], the half-maximal inhibitory concentration (IC50) is 2470 nM.

Regarding `O=C1c2nc(Cc3ccccc3)ccc2CN1c1ccccc1F` [Example 49, 2-Benzyl-6-(2-fluorophenyl)-5,6-dihydro-7H-pyrrolo[3,4-b]pyridin-7-one], the IC50 is 3680 nM.

Take `Cc1cc(NC(=O)c2ncn(Cc3ccccc3)n2)ccc1OC(F)(F)F` [Example 53, 1-benzyl-N-(3-methyl-4-(trifluoromethoxy)-phenyl)-1H-1,2,4-triazole-3-carboxamide]: the IC50 is 4910 nM.

The next assay relates to U937 cells. Kind of assay: Human U937 cellular necroptosis assay. The assay is classed as cell-based. The note with it: U-937; U937 cells stimulated with 25 ng/mL human TNFalpha and 25 μM z-VAD-FMK; 22 hr; Cell Titer-Glo viability. The method, then: Human U937 Cellular Necroptosis Assay
The human monocytic cell line U937 (CRL-1593.2) may be purchased from ATCC. The cells are routinely maintained in RPMI-1640 Medium (Gibco, Catalog #11875-093) supplemented with 10% heat inactivated fetal bovine serum (Gibco, Catalog #16140-071), 100 units/mL penicillin and 100 μg/mL streptomycin (Gibco, Catalog #15140-122), in a humidified incubator (37° C., 5% CO2). For the assay, cells are resuspended in RPMI-1640 phenol red free Media (Gibco, Catalog #11835-030) supplemented with 10% fetal bovine serum (Sigma, Catalog #F2442), 100 units/mL penicillin and 100 ug/mL streptomycin. […] Stock solutions of the test compounds are prepared in 100% DMSO (Sigma, Catalog #D2650) and serially diluted 1:3 using 100% DMSO. Compounds are additionally diluted 1:40 in assay medium, and 10 μL/well was transferred to the plate. Following the compound addition, the plate is incubated at 37° C. and 5% CO2 for 22 hr. After 22 hr, viability is assessed with the addition of 20 μL of Cell Titer-Glo 2.0 (Promega, Catalog #G9243). The tissue culture plate is shaken on an orbital shaker at 300 RPM for 15 minutes at room temperature in the dark. Luminescence is measured using a PerkinElmer Envision™ plate reader. IC50 values are calculated using a four-parameter logistic curve fit using Genedata Screener software.
`N#CCc1cc(Cl)c(F)c(N2CCc3c(nn(Cc4cccc(F)c4F)c3Cl)C2=O)c1` [Example 84, 2-(3-chloro-5-(3-chloro-2-(2,3-difluorobenzyl)-7-oxo-2,4,5,7-tetrahydro-6H-pyrazolo[3,4-c]pyridin-6-yl)-4-fluorophenyl)acetonitrile] registered an IC50 of 142 nM.

As to `CC(=O)NCc1cc(Cl)c(F)c(N2CCc3c(nn(Cc4cccc(F)c4F)c3Cl)C2=O)c1` [Example 85, N-(3-chloro-5-(3-chloro-2-(2,3-difluorobenzyl)-7-oxo-2,4,5,7-tetrahydro-6H-pyrazolo[3,4-c]pyridin-6-yl)-4-fluorobenzyl)acetamide], the IC50 was determined as 1040 nM.

Compound `Cc1cnc(Cn2cnc(C(=O)Nc3cccc(Cl)c3F)n2)cn1` [Example 91, N-(3-chloro-2-fluorophenyl)-1-((5-methylpyrazin-2-yl)methyl)-1H-1,2,4-triazole-3-carboxamide] registered a concentration for half-maximal inhibition (IC50) of 2560 nM.

Consider `NCc1cc(Cl)c(F)c(NC(=O)c2ncn(Cc3ccccc3)n2)c1` [Example 92, N-(5-(aminomethyl)-3-chloro-2-fluorophenyl)-1-benzyl-1H-1,2,4-triazole-3-carboxamide], for which 1650 nM corresponded to half-maximal inhibition (IC50).

Take `CS(=O)(=O)NCc1cc(Cl)c(F)c(NC(=O)c2ncn(Cc3ccccc3)n2)c1` [Example 93, 1-Benzyl-N-(3-chloro-2-fluoro-5-(methylsulfonamidomethyl)phenyl)-1H-1,2,4-triazole-3-carboxamide]: the half-inhibitory concentration (IC50) worked out at 1500 nM.

As to `O=C(Nc1cc(CO)cc(Cl)c1F)c1ncn(Cc2ccccc2)n1` [Example 94, 1-Benzyl-N-(3-chloro-2-fluoro-5-(hydroxymethyl)phenyl)-1H-1,2,4-triazole-3-carboxamide], half-maximal inhibition (IC50) required 797 nM.

The compound `COCCOCc1cc(Cl)c(F)c(NC(=O)c2ncn(Cc3ccccc3)n2)c1` [Example 95] yielded an IC50 of 529 nM.

`N#CCc1cc(Cl)c(F)c(NC(=O)c2ncn(Cc3ccccc3)n2)c1` [Example 96, 1-Benzyl-N-(3-chloro-5-(cyanomethyl)-2-fluorophenyl)-1H-1,2,4-triazole-3-carboxamide] displayed a half-inhibitory concentration (IC50) of 347 nM.

For `O=C(Nc1cc(Cn2ccnc2)cc(Cl)c1F)c1ncn(Cc2ccccc2)n1` [Example 97, N-(5-((1H-imidazol-1-yl)methyl)-3-chloro-2-fluorophenyl)-1-benzyl-1H-1,2,4-triazole-3-carboxamide], the IC50 was 1180 nM.

In turn, `O=C(Nc1cc(Cn2cnc3ccccc32)cc(Cl)c1F)c1ncn(Cc2ccccc2)n1` [Example 98, N-(5-((1H-benzo[d]imidazol-1-yl)methyl)-3-chloro-2-fluorophenyl)-1-benzyl-1H-1,2,4-triazole-3-carboxamide] showed an IC50 of 3860 nM.

In turn, `O=C(Nc1cc(Cn2cccn2)cc(Cl)c1F)c1ncn(Cc2ccccc2)n1` [Example 99, N-(5-((1H-pyrazol-1-yl)methyl)-3-chloro-2-fluorophenyl)-1-benzyl-1H-1,2,4-triazole-3-carboxamide] returned an IC50 of 2540 nM.
